The source of these data is patent publication US20250195521A1 (Revolution Medicines, Inc., priority 2020, published 2025).

SMILES strings stand for the structures.

Assay [1] addresses NRAS G12C binding to BRAF RBD (Homo sapiens (Human), UniProt P01111+P62937, G12C). As to the kind of experiment: Ras-Raf disruption/FRET/MOA assay, NRAS G12C. Type of assay: biochemical. An excerpt:
(§1) Note—The following protocol describes a procedure for monitoring disruption of K-Ras G12C(GMP-PNP) binding to BRAF^RBD by a compound of the invention. This protocol may also be executed substituting other Ras proteins or nucleotides.
(§2) The purpose of this biochemical assay was to measure the ability of test compounds to facilitate ternary complex formation between a nucleotide-loaded K-Ras isoform and Cyclophilin A; the resulting ternary complex disrupts binding to a BRAF^RBD construct, inhibiting K-Ras signaling through a RAF effector. Data is reported as IC50 values.
(§3) Compound was present in plate wells as a 10-point 3-fold dilution series starting at a final concentration of 30 μM. After incubation at 25° C. for 3 hours, a mixture of Anti-His Eu—W1024 and anti-GST allophycocyanin was then added to assay sample wells at final concentrations of 10 nM and 50 nM, respectively, and the reaction incubated for an additional 1.5 hours. […] Compounds that facilitate disruption of a K-Ras: RAF complex were identified as those eliciting a decrease in the TR-FRET ratio relative to DMSO control wells.

For a further assay, the system named is NCI-H358 (K-Ras G12C). As to the kind of experiment: CellTiter-Glo cell viability assay, NCI-H358. Type of assay: cell-based, human. The following applies: Homo sapiens, NCI-H358, 120 h, 5-day treatment; read-out: H358 Cell Viability assay data (K-Ras G12C, IC50). In short, it runs like this: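 Luminescent CellTiter-Glo read-out on day 5 after compound exposure; signal expressed as percent of mean DMSO control; four-parameter logistic fit gives the value.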
On the technique in general: In ATP-based viability assays light output follows the ATP content of the culture.

For assay [2], the target named is KRAS G13D binding to BRAF RBD (Homo sapiens (Human), UniProt P01116+P62937, G13D). As to the kind of experiment: Ras-Raf disruption/FRET/MOA assay, KRAS G13D. Type of assay: biochemical.
Sequence of KRAS G13D binding to BRAF RBD (P01116 other isoform, or with tags, fused parts or gaps G13D): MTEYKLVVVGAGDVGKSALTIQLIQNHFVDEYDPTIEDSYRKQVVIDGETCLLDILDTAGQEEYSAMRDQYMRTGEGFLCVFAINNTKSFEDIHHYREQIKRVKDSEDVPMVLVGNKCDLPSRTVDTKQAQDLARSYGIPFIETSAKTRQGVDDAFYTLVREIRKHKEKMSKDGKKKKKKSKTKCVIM
Sequence of KRAS G13D binding to BRAF RBD (P62937 whole entry): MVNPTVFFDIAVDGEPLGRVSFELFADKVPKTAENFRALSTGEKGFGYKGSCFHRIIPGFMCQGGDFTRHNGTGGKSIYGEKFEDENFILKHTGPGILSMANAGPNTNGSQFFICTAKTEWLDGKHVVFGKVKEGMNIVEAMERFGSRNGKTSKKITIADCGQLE
Source text: as §1, §2, §3

Assay [3] deals with K-Ras G12C(GMP-PNP) binding to BRAF RBD (Homo sapiens (Human), UniProt P01116+P62937, G12C). As to the kind of experiment: Disruption of BRAF RBD interaction with K-Ras (FRET / MOA assay), K-Ras G12C. To be noted: read-out: KRAS G12C FRET IC50. Type of assay: biochemical. In short, it runs like this:
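First, test compounds in a 10-point 3-fold series (30 μM final top) were incubated for 3 hours at 25° C with nucleotide-loaded Ras, cyclophilin A and a BRAF RBD construct. Next, Eu anti-His and allophycocyanin anti-GST detection reagents were added for 1.5 hours. Finally, IC50s were derived from loss of TR-FRET signal against DMSO.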

Sequence of NRAS G12C binding to BRAF RBD (P01111 whole entry G12C): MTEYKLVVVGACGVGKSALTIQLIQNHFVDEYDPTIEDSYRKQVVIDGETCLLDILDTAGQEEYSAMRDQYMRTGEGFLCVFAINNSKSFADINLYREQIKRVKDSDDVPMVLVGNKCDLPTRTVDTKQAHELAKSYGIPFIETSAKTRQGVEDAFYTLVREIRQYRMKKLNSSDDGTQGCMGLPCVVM
Sequence of NRAS G12C binding to BRAF RBD (P62937 whole entry): as the sequence (P62937 whole entry) above
Sequence of K-Ras G12C(GMP-PNP) binding to BRAF RBD (P01116 other isoform, or with tags, fused parts or gaps G12C): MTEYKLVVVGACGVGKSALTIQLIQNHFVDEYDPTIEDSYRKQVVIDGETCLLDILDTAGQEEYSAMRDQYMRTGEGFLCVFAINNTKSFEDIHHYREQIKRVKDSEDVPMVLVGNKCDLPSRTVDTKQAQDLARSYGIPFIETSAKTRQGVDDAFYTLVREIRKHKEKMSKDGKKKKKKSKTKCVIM
Sequence of K-Ras G12C(GMP-PNP) binding to BRAF RBD (P62937 whole entry): as the sequence (P62937 whole entry) above

As for `C=CC(=O)N1CC[C@H](C(=O)N(C)[C@H](C(=O)N[C@H]2Cc3cc(O)cc(c3)-c3ccc4c(c3)c(c(-c3cccc(CN(C)C)c3)n4CC)CC(C)(C)COC(=O)[C@@H]3CCCN(N3)C2=O)C(C)C)C1` [Compound A106], the half-inhibitory concentration (IC50) (usually the midpoint of a concentration-inhibition curve) was 1000 to 10000 nM in assay [1], 100 to 1000 nM in the assay on NCI-H358 (K-Ras G12C) and more than 10000 nM in assay [2].

For `C=CC(=O)N1CC[C@H](C(=O)N(C)[C@H](C(=O)N[C@H]2Cc3cccc(c3)-c3ccc4c(c3)c(c(-c3cccnc3[C@H](C)OC)n4CC)CC(C)(C)COC(=O)[C@@H]3CCCN(N3)C2=O)C(C)C)C1` [Compound A114], the concentration for half-maximal inhibition (IC50) in assay [3], in assay [1] and in assay [2] was more than 10000 nM in each case.

Consider `C=CC(=O)N1CC[C@H](C(=O)N(C)[C@H](C(=O)N[C@H]2Cc3cc(O)cc(c3)-c3ccc4c(c3)c(c(-c3cccnc3COC)n4CC)CC(C)(C)COC(=O)[C@@H]3CCCN(N3)C2=O)C(C)C)C1` [Compound A137], for which the values for the IC50 (in assay [1]; in the assay with NCI-H358 (K-Ras G12C); in assay [2]) were 100 to 1000 nM, more than 10000 nM and more than 10000 nM, respectively.

Regarding `CC#CC(=O)N1CC[C@H](C(=O)N(C)[C@H](C(=O)N[C@H]2Cc3cc(O)cc(c3)-c3ccc4c(c3)c(c(-c3cncnc3)n4CC)CC(C)(C)COC(=O)[C@@H]3CCCN(N3)C2=O)C(C)C)C1` [Compound A169], the IC50 was 100 to 1000 nM in assay [3], 100 to 1000 nM in assay [1], 100 to 1000 nM in the assay on NCI-H358 (K-Ras G12C) and more than 10000 nM in assay [2].

Take `C=CC(=O)N1CC[C@H](C(=O)N(C)[C@H](C(=O)NC2C[C@@H]3CN(CCO3)c3ccc4c(c3)c(c(-c3cccnc3COC)n4CC)CC(C)(C)COC(=O)[C@@H]3CCCN(N3)C2=O)C(C)C)C1` (stereo partly shown) [Compound A318]: the IC50 (in assay [3]; in assay [1]; with NCI-H358 (K-Ras G12C); in assay [2]) was more than 10000 nM in each case.

As for `CCn1c(-c2cccnc2[C@H](C)OC)c2c3cc(ccc31)-c1cc(C(F)F)cc(n1)C[C@H](NC(=O)[C@H](C1CCCC1)N(C)C(=O)[C@H]1CCN(C(=O)C#CC(C)(C)N3CCC3)C1)C(=O)N1CCC[C@H](N1)C(=O)OCC(C)(C)C2` [Compound A456], the IC50 was 10 to 100 nM in assay [3], 10 to 100 nM in assay [1], less than 10 nM with NCI-H358 (K-Ras G12C) and 1000 to 10000 nM in assay [2].

`CCn1c(-c2cccnc2[C@H](C)OC)c2c3cc(ccc31)-c1cccc(c1)C[C@H](NC(=O)[C@H](C(C)C)N(C)C(=O)[C@H]1CCN(C(=O)C#CC3CCO3)C1)C(=O)N1CC(Br)C[C@H](N1)C(=O)OCC(C)(C)C2` (stereo partly shown) [Compound A508]: the figures for the concentration for half-maximal inhibition (IC50) in assay [1] and in assay [2] were 100 to 1000 nM and more than 10000 nM, respectively.

With `CC#CC(=O)N1CC[C@]2(CCC([C@H](C(=O)N[C@H]3Cc4nc(cs4)-c4ccc5c(c4)c(c(-c4cccnc4[C@H](C)OC)n5CC)CC(C)(C)COC(=O)[C@@H]4CCCN(N4)C3=O)C(C)C)C2=O)C1` (stereo partly shown) [Compound A511], the IC50 in assay [3] was 100 to 1000 nM; in assay [1] it was 100 to 1000 nM; with NCI-H358 (K-Ras G12C) it was less than 10 nM; in assay [2], 1000 to 10000 nM.

Take `CCn1c(-c2cccnc2[C@H](C)OC)c2c3cc(ccc31)-c1cccc(c1)C[C@H](NC(=O)[C@H](C(C)C)N(C)C(=O)[C@H]1CCN(C(=O)C#C[C@@H]3CC(F)(F)CN3C)C1)C(=O)N1CCC[C@H](N1)C(=O)OCC(C)(C)C2` [Compound A526]: the IC50 was 10 to 100 nM in assay [3], 10 to 100 nM in assay [1], less than 10 nM in the assay on NCI-H358 (K-Ras G12C) and more than 10000 nM in assay [2].
